According to patent publication US20230276831A1, “Food/Beverage Article” (Kikkoman Corporation, priority 2020, published 2023):

Assays:
[1] = system: Lactobacillus rennini (DSM 20253); assay: Antimicrobial action of oxygen-containing heterocyclic compounds in soy sauce (Test Example 6); assay type: cell-based; conditions: Loigolactobacillus rennini, DSM20253, 168 h, salt 4% (w/v), alcohol 5% (v/v)
Protocol: (§1) Commercially available whole soybean soy sauce (produced by Kikkoman Corporation) was electrodialyzed and then concentrated under reduced pressure to produce soy sauce at a salt concentration of 0% (w/v) and an alcohol concentration of 0% (v/v). Then, salt and/or alcohol was added to the above-mentioned obtained soy sauce, and the mixture was then heat-treated to produce soy sauce at a salt concentration of 4% (w/v) and an alcohol concentration of 5% (v/v).
The test substance described in Table 20 was added to the above-mentioned produced soy sauce to concentrations of 1 to 100 ppm. Lactic acid bacteria (Lactobacillus rennini (DSM 20253)) were then added to 10^6 to 10^7 cells/mL and cultured at 30° C. for 7 days. After the culture, the number of lactic acid bacteria was measured using the GAM agar medium “Nissui”. Soy sauce to which licoricidin was not added was used as a control group, and the antimicrobial activity was evaluated in comparison with the number of lactic acid bacteria in the control group. The evaluation was performed using the criterion shown below.
• A: The bacterial count decreases to less than 10% of the bacterial count of the control group. • B: The bacterial count decreases to 10% or more and less than 50% of the bacterial count of control group. • C: The bacterial count decreases to 50% or more and less than 100% of the bacterial count of the control group. • D: The bacterial count is the same as the bacterial count of the control group. • -: Not evaluated

[2] = system: Lactobacillus fructivores (NBRC 13954); assay: Antimicrobial action of oxygen-containing heterocyclic compounds in soy sauce (Test Example 7); assay type: cell-based; conditions: NBRC13954, 168 h, salt 4% (w/v), alcohol 5% (v/v)
Protocol: as §1
The test substance described in Table 21 was added to the soy sauce produced in Test Example 6 to concentrations of 0.1 ppm, 0.5 ppm, 1 ppm, 5 ppm, 25 ppm, and 50 ppm. Lactic acid bacteria (Lactobacillus fructivores (NBRC 13954)) were then added to 10^4 to 10^5 cells/mL and cultured at 30° C. for 7 days. After the culture, the number of lactic acid bacteria was measured using Difco Lactobacilli MRS Agar. Soy sauce to which the test substance was not added was used as a control group, and the antimicrobial activity was evaluated in comparison with the number of lactic acid bacteria in the control group. The evaluation was performed using the following criterion.
• A: The bacterial count decreases to less than 10% of the bacterial count of a control group. • B: The bacterial count decreases to 10% or more and less than 50% of the bacterial count of the control group. • C: The bacterial count decreases to 50% or more and less than 100% of the bacterial count of the control group. • D: The bacterial count is the same as the bacterial count of the control group.

In the case of `COc1c(CC=C(C)C)c(O)cc2c1C[C@H](c1ccc(O)c(CC=C(C)C)c1O)CO2` [Licoricidin, 4-[(R)-7-hydroxy-5-methoxy-6-(3-methyl-2-butenyl)chroman-3-yl]-2-(3-methyl-2-butenyl)-1,3-benzenediol], the activity at 5 ppm ([1]; test substance 5 ppm) was less than 10%, the activity at 10 ppm ([1]; test substance 10 ppm) was less than 10% and the activity at 25 ppm ([1]; test substance 25 ppm) was less than 10%. The activity at 50 ppm ([1]; test substance 50 ppm) was less than 10%, the activity at 0.1 ppm ([2]; test substance 0.1 ppm) was 10 to 50% and the activity at 0.5 ppm ([2]; test substance 0.5 ppm) was 10 to 50%. The activity at 1 ppm ([2]; test substance 1 ppm) was 10 to 50%, the activity at 5 ppm ([2]; test substance 5 ppm) was 10 to 50% and the activity at 25 ppm ([2]; test substance 25 ppm) was less than 10%. It also gave an activity at 50 ppm ([2]; test substance 50 ppm) of less than 10%.
